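A five-concentration, 48-hour dose response in 96-well plates underlies each endpoint, interpolated linearly between surrounding concentrations. The concentration for 50% growth inhibition is given as GI50. TGI marks complete inhibition of growth.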
How the values were obtained:
Assay in all cases: NCI tumour cell line growth inhibition, 48 h
OVCAR-4 ovarian = test system: OVCAR-4 ovarian
OVCAR-3 ovarian = test system: OVCAR-3 ovarian
CAKI-1 renal = test system: CAKI-1 renal
MOLT-4 leukemia = test system: MOLT-4 leukemia
SNB-78 CNS = test system: SNB-78 CNS
DMS 114 small cell lung = test system: DMS 114 small cell lung
NCI-H522 lung = test system: NCI-H522 lung
DMS 273 small cell lung = test system: DMS 273 small cell lung
HCT-15 colon = test system: HCT-15 colon
NCI-H23 lung = test system: NCI-H23 lung
M19-MEL melanoma = test system: M19-MEL melanoma
MDA-MB-435 = test system: MDA-MB-435

Structure (SMILES)	TGI (OVCAR-4 ovarian)	TGI (OVCAR-3 ovarian)	TGI (CAKI-1 renal)	TGI (MOLT-4 leukemia)	TGI (SNB-78 CNS)	TGI (DMS 114 small cell lung)	TGI (NCI-H522 lung)	TGI (DMS 273 small cell lung)	TGI (HCT-15 colon)	TGI (NCI-H23 lung)	TGI (M19-MEL melanoma)	GI50 (MDA-MB-435)	TGI (MDA-MB-435)	GI50 (OVCAR-4 ovarian)	GI50 (CAKI-1 renal)	GI50 (MOLT-4 leukemia)	GI50 (NCI-H522 lung)	GI50 (HCT-15 colon)	GI50 (NCI-H23 lung)
O=c1[nH]c(-c2ccc(-c3nc4cc([N+](=O)[O-])ccc4c(=O)[nH]3)cc2)nc2cc([N+](=O)[O-])ccc12	> 100 µM	> 100 µM	> 100 µM	> 100 µM	> 100 µM	> 100 µM	> 100 µM	> 100 µM	> 100 µM	> 100 µM	> 100 µM	–	–	–	–	–	–	–	–
CCOC(=O)C1=C(Nc2cccc3ccccc23)OC/C1=N\NC(=O)c1ccccc1O	> 59.1 µM	60 µM	80.2 µM	53.5 µM	–	31.6 µM	24.8 µM	> 61.1 µM	> 100 µM	15.3 µM	> 100 µM	–	–	–	–	–	–	–	–
O=C(Nc1nc(=S)c2c(ncn2CCO)[nH]1)c1ccccc1	> 100 µM	> 100 µM	> 100 µM	–	> 100 µM	> 100 µM	> 100 µM	> 100 µM	> 100 µM	–	> 100 µM	–	–	–	–	–	–	–	–
CS/C(=N\c1nccs1)NC(=O)c1cccc(Cl)c1	> 100 µM	> 100 µM	> 100 µM	89.6 µM	> 100 µM	> 100 µM	> 100 µM	> 100 µM	> 100 µM	> 100 µM	> 100 µM	–	–	–	–	–	–	–	–
OCC1OC(n2cnc3c(=S)nc[nH]c32)C(O)C1O (configuration not stated)	> 2500 µM	> 2500 µM	> 2500 µM	> 2500 µM	> 2500 µM	2490 µM	> 2500 µM	> 2310 µM	> 2500 µM	> 2500 µM	> 2500 µM	3.89 µM	> 2500 µM	4.05 µM	6.94 µM	2.58 µM	9.27 µM	6.62 µM	4.15 µM
CCCC(Sc1ccccc1)P(=O)(c1ccccc1)c1ccccc1 (configuration not stated)	> 100 µM	> 100 µM	> 100 µM	52.2 µM	> 100 µM	> 100 µM	> 100 µM	> 100 µM	–	> 100 µM	> 100 µM	–	–	–	–	–	–	–	–
COC(=O)c1cc(-c2cccn2C)c2c(c1C(=O)OC)c1ccccc1n2C	> 100 µM	> 100 µM	–	29.3 µM	> 100 µM	> 100 µM	80.9 µM	> 100 µM	> 100 µM	> 100 µM	–	–	–	–	–	–	–	–	–
CCC1CCc2c(OC)ccc(OCC(=O)O)c2C1=O (configuration not stated)	> 100 µM	> 100 µM	–	> 100 µM	> 100 µM	> 100 µM	> 100 µM	> 100 µM	> 100 µM	> 100 µM	> 100 µM	–	–	–	–	–	–	–	–
C=C1CCC2[C@@H](CCC3[C@]2(C)CCC[C@]3(C)C(=O)OC)C1CCO (some centres not stated)	26.6 µM	26 µM	24.9 µM	17.9 µM	36.3 µM	20.3 µM	21.6 µM	24.9 µM	27.3 µM	23.2 µM	29.9 µM	–	–	–	–	–	–	–	–
O=C1c2ccccc2CC1C1(O)C(=O)Nc2ccccc21 (configuration not stated)	> 100 µM	> 100 µM	> 100 µM	> 100 µM	> 100 µM	> 100 µM	> 100 µM	> 100 µM	> 100 µM	> 100 µM	> 100 µM	–	–	–	–	–	–	–	–
Cc1ccc(Sc2ccc(C)cc2[N+](=O)[O-])c([N+](=O)[O-])c1	> 100 µM	> 100 µM	> 10 µM	> 100 µM	> 100 µM	> 100 µM	> 100 µM	> 100 µM	> 100 µM	> 100 µM	> 100 µM	–	–	–	–	–	–	–	–
COc1cc(/C=C/C(=O)c2sc(NNC(C)=O)nc2C)ccc1O	–	> 100 µM	> 100 µM	> 100 µM	> 100 µM	> 100 µM	> 100 µM	> 100 µM	> 100 µM	> 100 µM	–	–	–	–	–	–	–	–	–
CC1CCC(C(C)C)C(O[C@@H]2OC(=O)C[C@@H]2Sc2ccccc2)C1 (some centres not stated)	41.9 µM	28.8 µM	63.6 µM	32 µM	73.1 µM	46.9 µM	–	36.7 µM	59.5 µM	96.3 µM	62.1 µM	–	–	–	–	–	–	–	–
C1CCOC2(CCC3(CC2)OCCCCO3)OC1	> 100 µM	–	> 100 µM	> 100 µM	> 100 µM	> 100 µM	> 100 µM	> 100 µM	> 100 µM	–	> 100 µM	–	–	–	–	–	–	–	–
O=C(CCc1cc(-c2ccccc2)nc(=S)[nH]1)Nc1ccccc1[N+](=O)[O-]	–	> 100 µM	> 100 µM	> 100 µM	> 100 µM	> 100 µM	> 100 µM	> 100 µM	> 100 µM	> 100 µM	> 100 µM	–	–	–	–	–	–	–	–
CC#CC1C(OC(=O)c2ccccc2)CCCC1(CI)N=[N+]=[N-] (configuration not stated)	> 100 µM	> 100 µM	> 100 µM	44.4 µM	> 100 µM	99.2 µM	63.8 µM	> 100 µM	> 100 µM	> 100 µM	> 100 µM	–	–	–	–	–	–	–	–
CC(=O)NC1CC2Oc3ccc(C)cc3C(C)(O2)C1O (configuration not stated)	–	> 100 µM	–	> 100 µM	–	> 100 µM	> 100 µM	> 100 µM	> 100 µM	> 100 µM	> 100 µM	–	–	–	–	–	–	–	–
CCOC(=O)c1nc(-c2ccccc2)oc1OCC	> 100 µM	> 100 µM	–	> 100 µM	> 100 µM	> 100 µM	> 100 µM	> 100 µM	–	> 100 µM	> 100 µM	–	–	–	–	–	–	–	–
C[C@@H](NC1CCC[C@H]1O)c1ccccc1 (some centres not stated)	> 100 µM	> 100 µM	> 100 µM	> 100 µM	> 100 µM	> 100 µM	–	> 100 µM	> 100 µM	–	> 100 µM	–	–	–	–	–	–	–	–
CCN(CC)CC(C(=O)Nc1c(C)cccc1C)/C(C)=N\NC(=O)c1ccncc1 (configuration not stated)	> 100 µM	> 100 µM	> 100 µM	> 100 µM	> 100 µM	> 100 µM	> 100 µM	> 100 µM	> 100 µM	> 100 µM	> 100 µM	–	–	–	–	–	–	–	–
COc1cc(C)c(O)c(C(=O)O)c1	> 100 µM	> 100 µM	> 100 µM	> 100 µM	> 100 µM	> 100 µM	> 100 µM	> 100 µM	> 100 µM	> 100 µM	> 100 µM	–	–	–	–	–	–	–	–
CC(=O)Nc1ccc(/C=C/C(=O)c2sc(-c3nc(C)c(C(=O)/C=C/c4ccc(NC(C)=O)cc4)s3)nc2C)cc1	> 100 µM	> 100 µM	> 100 µM	> 100 µM	> 100 µM	> 100 µM	> 100 µM	> 100 µM	> 100 µM	> 100 µM	> 100 µM	–	–	–	–	–	–	–	–
COc1ccc(/C=C2\CCC(CN(C)C)C2=O)cc1OC (configuration not stated)	18.4 µM	15.8 µM	10 µM	7.35 µM	66.4 µM	34.3 µM	4.23 µM	29.8 µM	8.81 µM	32.3 µM	24.4 µM	–	16.1 µM	–	–	–	–	–	–
